From patent US20040058880A1, “Aminoglycoside antibiotics as novel anti-infective agents” (priority 2002, published 2004) come the findings set out here.

Broadly, the MIC is the least concentration at which growth counts as inhibited.

Common to all, as to assay: In vitro antibacterial MIC, 96-well broth assay
The subject of assay [1] is P. aeruginosa ATCC 27853. Type of assay: cell-based, Pseudomonas aeruginosa. Conditions: growth by A595 after 24 h, 10^5-10^6 CFU/well; for MIC: Pseudomonas aeruginosa, ATCC27853. The protocol:
(§1) In Vitro Antibacterial Activity Determination of Minimum Inhibitory Concentrations (MICs).
(§2) The assays are carried out in 96-well flat-bottom plates. The bacterial suspension from an overnight culture grown in appropriate medium is added to a solution of test compound in water. Final bacterial inoculums are approximately 10^5-10^6 CFU/well. The percent growth of bacteria in test wells relative to that observed for a well containing no compound is determined by measuring absorbance at 595 nm (A595) after 24 h. The MIC (μg/mL) is determined as a range of single compound where the complete inhibition of growth is observed at the higher concentration and cells are viable at the lower concentrations. Tobramycin is used as an antibiotic-positive control in each screening assay for Pseudomonas aeruginosa, Acinetobacter species, Streptococci viridans, Proteus species, Hemophilus influenzae, Citrobacter species, Serratia marcescens, Staphylococcus aureus, Streptococcus pyogenes, Escherichia coli, Enterobacter species, Enterococcus faecalis, Enterococcus faecium Klebsiella pneumoniae and Providencia stuartii.

Assay [2] concerns P. aeruginosa ATCC 35151. Type of assay: cell-based, Pseudomonas aeruginosa. Conditions: growth by A595 after 24 h, 10^5-10^6 CFU/well; for MIC: Pseudomonas aeruginosa, ATCC35151. The method, then: as §1, §2
For assay [3], the system named is P. aeruginosa PAO-1. Type of assay: cell-based, Pseudomonas aeruginosa. Conditions: growth by A595 after 24 h, 10^5-10^6 CFU/well; for MIC: Pseudomonas aeruginosa, PAO1. The protocol:
as §1, §2

Assay [4] concerns S. aureus ATCC 29213 (MSSA). Type of assay: cell-based, Staphylococcus aureus. The settings on record: growth by A595 after 24 h, 10^5-10^6 CFU/well; for MIC: Staphylococcus aureus. The method, then:
as §1, §2

Assay [5] deals with S. aureus ATCC 33591 (MRSA). Format: cell-based, Staphylococcus aureus. Conditions: growth by A595 after 24 h, 10^5-10^6 CFU/well; for MIC: Staphylococcus aureus. The method, then:
as §1, §2

The test system of assay [6] is E. coli ATCC 25922. Type of assay: cell-based, Escherichia coli. Conditions: growth by A595 after 24 h, 10^5-10^6 CFU/well; for MIC: Escherichia coli, ATCC25922. The method, then:
as §1, §2

Assay [7] has as its system E. faecalis ATCC 29212. Type of assay: cell-based, Enterococcus faecalis. Conditions: growth by A595 after 24 h, 10^5-10^6 CFU/well; for MIC: Enterococcus faecalis, ATCC29212. The method, then:
as §1, §2

In brackets after ≈: the same amount, converted by molar mass.

Turning to `N=C(N)NC[C@H]1O[C@H](O[C@H]2[C@H](O)[C@@H](O[C@H]3O[C@H](CO)[C@@H](O)[C@H](O)[C@H]3N)[C@H](N)C[C@@H]2N)[C@H](N)C[C@@H]1O` [Compound 4a, 4-(2-amino-6-guanidinyl-2,3,6-dideoxy-α-D-glucopyranosyl)-6-(2-amino-2-deoxy-1-α-D-glucopyranosyl)-2-deoxystreptamine], the MIC is above 64 mg/L in assay [1]; above 64 mg/L in assay [2]; 64 mg/L (≈ 126 µM) in assay [3]; 64 mg/L (≈ 126 µM) in assay [4]; above 64 mg/L in assay [5]; 64 mg/L (≈ 126 µM) in assay [6]. The compound further had an MIC in assay [7] above 64 mg/L.
`NCCCCNCCCO[C@@H]1[C@@H](O)[C@H](O[C@H]2O[C@H](CN)[C@@H](O)C[C@H]2N)[C@@H](N)C[C@H]1N` [Compound 19a]: the MIC in assay [1], in assay [2], in assay [3], in assay [4], in assay [5] and in assay [6] was above 32 mg/L each time. Moreover, the MIC in assay [7] was above 32 mg/L.
As to `NCC1OC(OC2C(N)CC(N)C(OC3OC(CO)C(O)C(OC4OC(CO)C(O)C(O)C4N)C3N)C2O)C(N)CC1O` (stereo not drawn) [Compound 3d, 5-Amino-6-{3-amino-2-[4,6-diamino-3-(3-amino-6-aminomethyl-5-hydroxy-tetrahydro-pyran-2-yloxy)-2-hydroxy-cyclohexyloxy]-5-hydroxy-6-hydroxymethyl-tetrahydro-pyran-4-yloxy}-2-hydroxymethyl-tetrahydro-pyran-3,4-diol], the MIC is 64 mg/L (≈ 102 µM) in assay [1]; 16 mg/L (≈ 25.5 µM) in assay [2]; 32 mg/L (≈ 50.9 µM) in assay [3]; 16 mg/L (≈ 25.5 µM) in assay [4]; above 64 mg/L in assay [5]; 32 mg/L (≈ 50.9 µM) in assay [6]. In addition, the MIC in assay [7] was above 64 mg/L.
For `NC[C@H]1O[C@H](O[C@H]2[C@H](O)[C@@H](O[C@H]3O[C@H](CNC4CC4)[C@@H](O)[C@H](N)[C@H]3O)[C@H](N)C[C@@H]2N)[C@H](N)C[C@@H]1O` [Compound 9a], the MIC in assay [1] amounted to 64 mg/L (≈ 126 µM); in assay [2], 32 mg/L (≈ 63.2 µM); in assay [3], 32 mg/L (≈ 63.2 µM); in assay [4], 8 mg/L (≈ 15.8 µM); in assay [5], 8 mg/L (≈ 15.8 µM); in assay [6] it was 32 mg/L (≈ 63.2 µM). In assay [7], this compound had an MIC above 64 mg/L.
`NC[C@H]1O[C@H](O[C@H]2[C@H](OCC(O)CNCCCCNCC(O)CO[C@@H]3[C@@H](O)[C@H](N)C[C@H](N)[C@H]3O[C@H]3O[C@H](CN)[C@@H](O)C[C@H]3N)[C@@H](O)[C@H](N)C[C@@H]2N)[C@H](N)C[C@@H]1O` (stereo partly drawn) [Compound 27a]: the MIC in assay [1] is 4 mg/L (≈ 4.92 µM); in assay [2] it was 8 mg/L (≈ 9.84 µM); in assay [3], 4 mg/L (≈ 4.92 µM); in assay [4], 2 mg/L (≈ 2.46 µM); in assay [5] it was 16 mg/L (≈ 19.7 µM); in assay [6] it was 16 mg/L (≈ 19.7 µM). In addition, in assay [7], the MIC came to 32 mg/L (≈ 39.4 µM).
Consider “4-(2,6-diamino-2,3,6-dideoxy-α-D-glucopyranosyl)-6-(4-amino-4-deoxy-1-α-D-glucopyranosyl)-2-deoxystreptamine [Compound 3b]”, for which the “MIC P. aeruginosa ATCC 27853” value in assay [1] came to 16 mg/L. In assay [2], the “MIC P. aeruginosa ATCC 35151” value was 16 mg/L. In addition, the “MIC P. aeruginosa PAO-1” value in assay [3] worked out at 8 mg/L. The “MIC S. aureus ATCC 29213 (MSSA)” value in assay [4] was 32 mg/L. The “MIC S. aureus ATCC 33591 (MRSA)” value in assay [5] is above 64 mg/L. For the same compound, the “MIC E. coli ATCC 25922” value in assay [6] was 32 mg/L. Further, the “MIC E. faecalis ATCC 29212” value in assay [7] is above 64 mg/L.
On to `NC[C@H]1O[C@H](O[C@H]2[C@H](O)[C@@H](O[C@H]3O[C@H](CO)[C@@H](O)[C@H](N)[C@H]3O)[C@H](N)C[C@@H]2N)[C@H](N)C[C@@H]1O` [Tobramycin, reference compound], for which the MIC is 0.5 mg/L (≈ 1.07 µM) in assay [1]; 0.5 mg/L (≈ 1.07 µM) in assay [2]; 0.25 mg/L (≈ 0.535 µM) in assay [3]; 0.5 mg/L (≈ 1.07 µM) in assay [4]; above 64 mg/L in assay [5]; 1 mg/L (≈ 2.14 µM) in assay [6]. The compound also returned an MIC in assay [7] of 16 mg/L (≈ 34.2 µM).
Take `NC[C@H]1O[C@H](O[C@H]2[C@H](O)[C@@H](O[C@H]3O[C@H](CO)[C@@H](O)[C@H](O)[C@H]3N)[C@H](N)C[C@@H]2N)[C@H](N)C[C@@H]1O` [Compound 3a, 4-(2,6-diamino-2,3,6-dideoxy-α-D-glucopyranosyl)-6-(2-amino-2-deoxy-1-α-D-glucopyranosyl)-2-deoxystreptamine]: the MIC is 1 mg/L (≈ 2.14 µM) in assay [1]; 1 mg/L (≈ 2.14 µM) in assay [2]; 0.5 mg/L (≈ 1.07 µM) in assay [3]; 1 mg/L (≈ 2.14 µM) in assay [4]; above 64 mg/L in assay [5]; 2 mg/L (≈ 4.28 µM) in assay [6]. This compound came in with an MIC in assay [7] of 16 mg/L (≈ 34.2 µM).
Consider `NCCCCNCC(O)CO[C@@H]1[C@@H](O)[C@H](O[C@H]2O[C@H](CN)[C@@H](O)C[C@H]2N)[C@@H](N)C[C@H]1N` (stereo partly drawn) [Compound 14a], for which the MIC was 32 mg/L (≈ 71 µM) in assay [1]; 16 mg/L (≈ 35.5 µM) in assay [2]; 16 mg/L (≈ 35.5 µM) in assay [3]; 8 mg/L (≈ 17.8 µM) in assay [4]; above 64 mg/L in assay [5]; 16 mg/L (≈ 35.5 µM) in assay [6]. Besides, the MIC in assay [7] was above 64 mg/L.
As to `NC[C@H]1O[C@H](O[C@H]2[C@H](O)[C@@H](OCC(O)CNCCCCNCC(O)CO[C@@H]3[C@@H](O)[C@H](O[C@H]4O[C@H](CN)[C@@H](O)C[C@H]4N)[C@@H](N)C[C@H]3N)[C@H](N)C[C@@H]2N)[C@H](N)C[C@@H]1O` (stereo partly drawn) [Compound 13a], the MIC in assay [1] came out at 2 mg/L (≈ 2.46 µM); in assay [2], 4 mg/L (≈ 4.92 µM); in assay [3], 2 mg/L (≈ 2.46 µM); in assay [4], 0.5 mg/L (≈ 0.615 µM); in assay [5], 16 mg/L (≈ 19.7 µM); in assay [6], 4 mg/L (≈ 4.92 µM). The compound further gave an MIC in assay [7] of 32 mg/L (≈ 39.4 µM).
As for `NC[C@H]1O[C@H](O[C@H]2[C@H](O)[C@@H](OCCCNCCCCNCCCO[C@@H]3[C@@H](O)[C@H](O[C@H]4O[C@H](CN)[C@@H](O)C[C@H]4N)[C@@H](N)C[C@H]3N)[C@H](N)C[C@@H]2N)[C@H](N)C[C@@H]1O` [Compound 18a], the MIC in assay [1] came to 16 mg/L (≈ 20.5 µM); in assay [2], 32 mg/L (≈ 41 µM); in assay [3] it was 8 mg/L (≈ 10.2 µM); in assay [4] it was 4 mg/L (≈ 5.12 µM); in assay [5] it was 32 mg/L (≈ 41 µM); in assay [6] it was 16 mg/L (≈ 20.5 µM). In addition, the MIC in assay [7] was above 64 mg/L.
Regarding “4-(2,6-diamino-2,3,6-dideoxy-α-D-glucopyranosyl)-6-(2-amino-2-deoxy-4-amino-4-deoxy-α-D-glucopyranosyl)-2-deoxystreptamine [Compound 3c]”, in assay [1], the “MIC P. aeruginosa ATCC 27853” value came to 2 mg/L. Also, the “MIC P. aeruginosa ATCC 35151” value in assay [2] worked out at 1 mg/L. Further, in assay [3], the “MIC P. aeruginosa PAO-1” value turned out to be 1 mg/L. Moreover, the “MIC S. aureus ATCC 29213 (MSSA)” value in assay [4] stood at 1 mg/L. Further, the “MIC S. aureus ATCC 33591 (MRSA)” value in assay [5] is above 64 mg/L. Besides, the “MIC E. coli ATCC 25922” value in assay [6] was determined as 2 mg/L. The “MIC E. faecalis ATCC 29212” value in assay [7] worked out at 32 mg/L.
